Assay: rectal body temperature of rats after 3 hours in an enclosure supplied with a 22% oxygen / 78% helium, xenon or argon mixture at different temperatures
Format: in vivo, rat
Settings: comparison of FIGS. 1 and 2
Excerpt: The graph of FIG. 1, which represents the experimental body temperature data Tc collected on rats as a function of the inhalation temperature Ti of a helium-oxygen mixture (curve C1) or of a xenon-oxygen mixture (curve C2), makes it possible to determine the proportions of the gas composition to be complied with in order to obtain a hypothermal gas mixture, depending on the inhalation temperature. In a more detailed manner, curves C1 and C2 correspond to regression lines obtained based on said experimental data Pi, several examples of which have been plotted in FIG. 1.
The experimental data were obtained as follows: The rats were placed for 3 hours in a closed enclosure supplied with a continuous flow of a gas mixture containing 22% oxygen (O2) and 78% helium, xenon or argon (He, Xe or Ar). This gas mixture was administered at different temperatures. The flow of the gas mixture was 10 mL/min and made it possible to maintain the carbon dioxide (CO2) concentration below 0.03% and the humidity at around 60% to 70%. […] At the end of the 3 hours of exposure, the rectal body temperature of the rats was measured for each administration temperature.
The inhalation temperature Ti can be between 16° C. and 27° C., for example.

SMILES: [Ar] [Argon (Ar), Argon]
- hypothermal properties (slope of curve C3 compared with curve C2): lower hyperthermal properties than xenon

Source: US20190125785A1, “HYPOTHERMAL INHALATION GAS COMPOSITION” (MONATOMICS TECHNOLOGY, priority 2016, published 2019)
